# Source: publication PMC6985722 (Antimicrobial Agents and Chemotherapy, 2020)
# pEC50, pIC50: −log10 of the molar value. Like-named read-outs stand apart in the source and are kept apart here.
# Experiments:
# [1] = system: RSV-A clinical isolates; design: method as in ref 16 = [16]; 16. Cockerill GS , Bedernjak A , Brookes D , Dowey R , Harland R , Johnson SM , Mathews N , Paradowski M , Peeples M , Scott C , Steadman M , Taylor G , Thom M , Thomas E , Ward SE , Watterson D , You; conditions: n = 20 isolates; cited from earlier work
# [2] = preclinical evaluations, including juvenile toxicology studies; cited from earlier work
# [3] = 76 healthy adult males; single and multiple ascending dose; cited from earlier work
# [4] = system: RSV-B (panel of 10 clinical strains); experiment: In vitro susceptibility of RSV by plaque assay, RSV-B; format: cell-based; conditions: human respiratory syncytial virus
# Description: (§1) Previous RSV challenge studies achieved antiviral efficacy with peripheral blood trough exposure levels over 3× the protein binding-adjusted in vitro EC90 ([12]). Based on the phase 1 PK data, this level of exposure was predicted to be achieved on or after the first dose in the majority of subjects with a 200-mg dose and to be met or exceeded on or after the first dose in all subjects with a 350-mg dose. The in vitro EC90 was determined using a panel of clinical isolates of RSV (Table S7).
# (§2) EC50 range (nM) EC90 range (nM)
# (§3) EC50 and EC 90 were determined by plaque assay.
# (§4) EC50, 50% effective concentration; EC90, 90% effective concentration; RSV, respiratory
# [5] = system: RSV-A (panel of 10 clinical strains); experiment: In vitro susceptibility of RSV by plaque assay, RSV-A; format: cell-based; conditions: human respiratory syncytial virus
# Description: as §1, §2, §3, §4
# [6] = RSV human challenge study: plasma pharmacokinetics; format: in vivo; conditions: for half-life / Tmax / concentration at 12 h / Cmax / AUC(0-t): human; for concentration at 12 h: 12 hours post-dose, read-out: Mean Cmin (SD); for Cmax: read-out: Mean Cmax (SD); for AUC(0-t): read-out: Geometric mean (CV) AUC0–12h
# Description: Twice-daily collection of nasal wash samples allowed measurement of viral load via RT-qPCR and quantitative culture. […] Subjects reported the occurrence and severity of symptoms three times daily using a 10-item subject symptom diary card as previously reported ([12]) (see Supplemental Methods). Throughout the quarantine period, used tissues were collected and weighed daily, and total nasal mucus weight was recorded. PK assessments were based on venous blood samples. Safety assessments included measurement of vital signs, standard 12-lead ECG recordings, spirometry, a complete physical examination, and a respiratory-directed physical examination. AEs were monitored daily, coded according to the Medical Dictionary for Regulatory Activities Version 20.0, and graded according to the National Cancer Institute Common Terminology Criteria for Adverse Events Version 4.0 (see Supplemental Methods for further details).
# The safety analysis set comprised all subjects who received challenge virus; the PK analysis set comprised all subjects who received the challenge virus and provided at least one postdose PK result.
# PK parameters were derived by noncompartmental analysis using Phoenix WinNonlin version 6.4.1. Statistical analyses were performed using SAS software version 9.4 or later. […]
# Outcomes. Safety outcomes included the occurrence of AEs. PK outcomes included the maximum plasma concentration, the minimum plasma concentration, the time to maximum plasma concentration, and the area under the plasma concentration-time curve with a dosing interval, calculated by the linear trapezoidal rule.
smiles,measurement,setting,value
NCc1ccc2c(c1)nc(CN1C(=O)C3(CC3)c3ccc(F)cc31)n2CCCC(F)(F)F [RV521],pIC50,[1],8.85
same,Safety profile,[2],good safety profile
same,Tolerability,[3],well tolerated
same,pEC50,[4]; read-out: EC50 range,8.85 to 9.40
same,EC90,[4]; read-out: EC90 range,2 to 10.4 nM
same,pEC50,[5]; read-out: EC50 range,9.00 to 9.52
same,EC90,[5]; read-out: EC90 range,2.5 to 5.6 nM
same,Time to steady-state plasma levels after the first dose,[6]; 200 mg and 350 mg,≤ 24 h
same,Subjects achieving target trough levels (3× protein-adjusted in vitro EC90),"[6]; 200 mg, after the first dose",50%
same,Subjects achieving target trough levels (3× protein-adjusted in vitro EC90),"[6]; 200 mg, after the second dose",73%
same,Subjects with trough levels in excess of the target (3× protein-adjusted in vitro EC90),"[6]; 350 mg, after the first dose",all subjects
same,Increase of systemic exposure with dose,"[6]; dose 1 and dose 10, 200 mg vs 350 mg",greater than dose-proportional
same,half-life,"[6]; in vivo, 200 mg and 350 mg, read-out: Elimination half-life (converted)",~6 h
same,Tmax,"[6]; plasma, oral, 200 mg and 350 mg, postdose, read-out: Median time to maximum plasma concentration",5 to 6 h
same,concentration at 12 h,"[6]; plasma, oral, 200 mg, dose 1",22.6 ng/mL
same,Cmax,"[6]; plasma, oral, 200 mg, dose 1, plasma",55.3 ng/mL
same,AUC(0-t),"[6]; plasma, oral, 200 mg, dose 1",255 ng·h/mL
same,Tmax,"[6]; plasma, oral, 200 mg, dose 1, read-out: Median Tmax",5.04 h
same,Cmax,"[6]; plasma, oral, 200 mg, dose 10 (twice daily), plasma",94.9 ng/mL
same,concentration at 12 h,"[6]; plasma, oral, 200 mg, dose 10",39.4 ng/mL
same,AUC(0-t),"[6]; plasma, oral, 200 mg, dose 10",642 ng·h/mL
same,Tmax,"[6]; plasma, oral, 200 mg, dose 10, read-out: Median Tmax",5.06 h
same,concentration at 12 h,"[6]; plasma, oral, 350 mg, dose 1",80 ng/mL
same,Cmax,"[6]; plasma, oral, 350 mg, dose 1, plasma",169 ng/mL
same,AUC(0-t),"[6]; plasma, oral, 350 mg, dose 1",953 ng·h/mL
same,Tmax,"[6]; plasma, oral, 350 mg, dose 1, read-out: Median Tmax",6 h
same,Cmax,"[6]; plasma, oral, 350 mg, dose 10 (twice daily), plasma",294 ng/mL
same,concentration at 12 h,"[6]; plasma, oral, 350 mg, dose 10",151 ng/mL
same,AUC(0-t),"[6]; plasma, oral, 350 mg, dose 10",1900 ng·h/mL
same,Tmax,"[6]; plasma, oral, 350 mg, dose 10, read-out: Median Tmax",5.05 h
same,half-life,"[6]; plasma, oral, 200 mg and 350 mg, read-out: Terminal half-life",8.54 to 9.35 h
